What is called EC50 is the concentration at which the effect is half-maximal.

Some results are limits rather than exact numbers.

This note sets out measurements from patent US11464783B2, “Heterocyclic compounds” (Aligos Therapeutics, Inc., priority 2019, dated 2022).

One experiment concerns HBV. Kind of experiment: HBV-DNA Antiviral Assay Using HepG2.2.15 Cells. Conditions: Hepatitis B virus, HepG2.2.15, 168 h, extracellular HBV DNA by qPCR, day 7. The experiment is classed as cell-based. On the procedure: The following assay procedure describes the HBV antiviral assay. This assay uses HepG2.2.15 cells, which have been transfected with HBV genome, and extracellular HBV DNA quantification as endpoint. Cell viability is assessed in parallel by measuring the intracellular ATP content using the CellTiter-Glo® reagent from Promega.
On day 0, HepG2.2.15 cells were seeded in 96-well plates at a density of 6.0×10^4 cells/well (0.1 mL/well). The cells were incubated at 37° C. and 5% CO2.
On day 1, the test articles were diluted and added to cell culture wells (8 concentrations, 4-fold dilution, in duplicate). GLS4, Tenofovir and Sorafenib were used as reference compounds. 100 μL of culture medium containing the compounds was added to the plate, and the final total volume per well was 200 μL. The final concentration of DMSO in the culture medium was 0.5%. The plate map of compound treatment is shown below. The cells were cultured at 37° C. and 5% CO2 for 3 days.
On day 4, the plates were refreshed with culture media with compounds.
On day 7, cell viability was assessed using the CellTiter-Glo®, and the cell culture supernatants were collected for determination of HBV DNA by qPCR.
Extracellular DNA was isolated with QIAamp 96 DNA Blood Kit per the manufacturer's manual. HBV DNA was then quantified by qPCR with HBV specific primers and probes as specified in Table 1 using the FastStart Universal MasterMix from Roche on an ABI-7900HT. The PCR cycle program consisted of 95° C. for 10 min, followed by 40 cycles at 95° C. for 15 sec and 60° C. for 1 min.
A DNA standard was prepared by dilution of the pAAV2 HBV1.3 plasmid with concentrations ranging from 10 to 1×10^7 copies/uL and used to generate a standard curve by plotting Ct value vs. the concentration of the HBV plasmid DNA standard. The quantity of HBV DNA in each sample was determined by interpolating from the standard curve.
Cell viability was calculated as follows: % Cell viability=(luminescence value of test sample−average luminescence value of blank)/(average luminescence value of 0.5% DMSO control−average luminescence of blank)×100%. HBV DNA inhibition was calculated as follows: 100-(HBV DNA copy number of test sample−HBV DNA copy number of ETV)/HBV DNA copy number of 0.5% DMSO control−HBV DNA copy number of ETV)×100%. The CC50, EC50 and EC90 values were determined by dose-response curves fitted by GraphPad Prism using “log (agonist) vs. response-Variable slope”.
For orientation: Real-time PCR tracks product formation cycle by cycle.
The compound `O=C(c1ccc(Br)c(Cl)c1)N1CCS(=O)(=O)C(c2cccs2)C1` (centres unmarked) [Compound 6a, (4-bromo-3-chloro-phenyl)-[1,1-dioxo-2-(2-thienyl)-1,4-thiazinan-4-yl]methanone] gave an EC50 of no more than 100 nM. Same read-out and setting: as for `O=C(c1ccc(Cl)cc1F)N1CCS(=O)(=O)C(c2cccs2)C1` (centres unmarked) [Compound 10a, (4-chloro-2-fluoro-phenyl)-[1,1-dioxo-2-(2-thienyl)-1,4-thiazinan-4-yl]methanone], the figure is greater than 5000 nM.

The compound `O=C(c1ccc(Cl)cc1Cl)N1CCS(=O)(=O)C(c2cccs2)C1` (centres unmarked) [Compound 11a, (2,4-dichlorophenyl)-[1,1-dioxo-2-(2-thienyl)-1,4-thiazinan-4-yl]methanone] yielded an EC50 of 500 to 5000 nM. For the compound `O=C(c1cccc(Cl)c1F)N1CCS(=O)(=O)C(c2cccs2)C1` (centres unmarked) [Compound 14a, (3-chloro-2-fluoro-phenyl)-[1,1-dioxo-2-(2-thienyl)-1,4-thiazinan-4-yl]methanone], the EC50 was greater than 5000 nM.

`C[C@@H]1CS(=O)(=O)[C@@H](c2cccs2)CN1C(=O)Nc1ccc(F)c(Cl)c1` [Compound 22, (2R,5R)-N-(3-chloro-4-fluoro-phenyl)-5-methyl-1,1-dioxo-2-(2-thienyl)-1,4-thiazinane-4-carboxamide] registered an EC50 greater than 5000 nM. In the case of `C[C@H]1CS(=O)(=O)[C@H](c2cccs2)CN1C(=O)c1ccc(Br)c(Cl)c1` [Compound 24, (4-bromo-3-chloro-phenyl)-[(2S,5S)-5-methyl-1,1-dioxo-2-(2-thienyl)-1,4-thiazinan-4-yl]methanone], the EC50 was 100 to 500 nM.

The experiment is the same for the next values; noted with them: extracellular HBV DNA by qPCR, day 7.
In turn, `Cn1cnc(-c2ccc(C3CN(C(=O)c4ccc(Br)c(Cl)c4)CCS3(=O)=O)s2)c1` (single isomer, unassigned) [Compound 16b, (4-bromo-3-chloro-phenyl)-[2-[5-(1-methylimidazol-4-yl)-2-thienyl]-1,1-dioxo-1,4-thiazinan-4-yl]methanone] returned an EC50 of 500 to 5000 nM. On the same count and under the same terms, the figure for `O=C(c1ccc(Br)c(Cl)c1)N1CCS(=O)(=O)C(c2cccs2)C1` (centres unmarked) [Compound 6b, (4-bromo-3-chloro-phenyl)-[1,1-dioxo-2-(2-thienyl)-1,4-thiazinan-4-yl]methanone] is 100 to 500 nM.
